The source of these data is patent US10570168B2, “2′ and/or 5′ amino-acid ester phosphoramidate 3′-deoxy adenosine derivatives as anti- cancer compounds” (NuCana plc, priority 2014, dated 2020).

Holding throughout (type): cell-based
For one data set, the system named is CCRFCEM. The data set can be described thus: Solid tumour and haematological malignancy assay (CellTiterGlo). To be noted: Homo sapiens, CCRF-CEM, 72 h; for IC50: read-out: IC50 (absolute IC50); for Emax: read-out: MI %. How it is done:
(§1) In vitro viability assay were performed to assess the effects of compounds on cell viability in selected cell lines over 72 hr using the CellTiterGlo (CTG, Promega-G7573) assay. […] Cell viability assay using CellTiterGlo in 96-well plate were performed. Compound treatment 72 hrs, standard growth conditions, duplicates. Compounds were dissolved to 40 mM with thawed 100%. […] After compounds were dissolved in media, media containing compounds were warmed to 37° C. in incubator and then compounds in media were added to cell plates ([…]) in duplicates. […] All compound solubilities were checked and recorded again, then the plates were transferred to CO2 tissue culture incubator immediately and incubated for 3 days. DMSO final concentration is 0.5%.

The next data set concerns HEL92.1.7. Described as above. To be noted: Homo sapiens, HEL 92.1.7, 72 h; for IC50: read-out: IC50 (absolute IC50); for Emax: read-out: MI %. How it is done: as §1
The subject of another data set is HL-60. Described as above. As to conditions: Homo sapiens, HL-60, 72 h; for IC50: read-out: IC50 (absolute IC50); for Emax: read-out: MI %. Here is the method: as §1
In a further data set the test system is HT29. The description is as above. As to conditions: Homo sapiens, HT-29, 72 h; for IC50: read-out: IC50 (absolute IC50); for Emax: read-out: MI %. How it is done: as §1
The subject of another data set is HepG2. Described as above. To be noted: Homo sapiens, HepG2, 72 h; for IC50: read-out: IC50 (absolute IC50); for Emax: read-out: MI %. Here is the method:
as §1

Another data set concerns K562. Described as above. As to conditions: Homo sapiens, K562, 72 h; for IC50: read-out: IC50 (absolute IC50); for Emax: read-out: MI %. Here is the method:
as §1

In another data set the test system is KG-1. The description is as above. As to conditions: Homo sapiens, KG-1, 72 h; for IC50: read-out: IC50 (absolute IC50); for Emax: read-out: MI %. Here is the method: as §1
For a further data set, the system named is MCF7. Described as above. To be noted: Homo sapiens, MCF7, 72 h; for IC50: read-out: IC50 (absolute IC50); for Emax: read-out: MI %. Here is the method: as §1
The test system of another data set is MiaPaCa-2. The data set is described as above. As to conditions: Homo sapiens, MIA PaCa-2, 72 h; for IC50: read-out: IC50 (absolute IC50); for Emax: read-out: MI %. Here is the method:
as §1

Data set [1] deals with leukaemic stem cell (LSC) compartment within the KG1a cell line. The data set can be described thus: Immunophenotypic identification of the leukaemic stem cell compartment. As to conditions: 72 h; for LSC targeting compared with the parent nucleoside: for compound A at 1 mM and above. Here is the method: KG1a cells were cultured for 72 h in the presence of a wide range of concentrations of each compound assayed. Cells were then harvested and labelled with a cocktail of anti-lineage antibodies (PE-cy7), anti-CD34 (FITC), anti-CD38 (PE) and anti-CD123 (PERCP cy5). The sub-population expressing a LSC phenotype were subsequently identified and were expressed as a percentage of all viable cells left in the culture. The percentages of stem cells remaining were then plotted on a dose-response graph and the effects of the compounds were compared with each other, and with the parent nucleoside.
The data obtained in these experiments were evaluated using one way ANOVA. All data was confirmed as Gaussian or a Gaussian approximation using the omnibus K2 test. LD50 values were calculated from the non-linear regression and line of best-fit analysis of the sigmoidal dose-response curves. All statistical analyses were performed using Graphpad Prism 6.0 software (Graphpad Software Inc., San Diego, Calif.).

Another data set relates to KG1a cells. The data set is described as follows: Annexin V/propidium iodide in vitro apoptosis assay (LD50). As to conditions: 72 h.

Each structure is given as a SMILES string.

Description for KG1a cells: The KG1a cell line was maintained in RPMI medium (Invitrogen, Paisley, UK) supplemented with 100 units/ml penicillin, 100 μg/ml streptomycin and 20% foetal calf serum. Cells were subsequently aliquoted (10^5 cells/100 μl) into 96-well plates and were incubated at 37° C. in a humidified 5% carbon dioxide atmosphere for 72 h in the presence of nucleoside analogues and their respective proTides at concentrations that were experimentally determined for each series of compounds. In addition, control cultures were carried out to which no drug was added. Cells were subsequently harvested by centrifugation and were analyzed by flow cytometry using the Annexin V assay.
Cultured cells were harvested by centrifugation and then resuspended in 195 μl of calcium-rich buffer. Subsequently, 5 μl of Annexin V (Caltag Medsystems, Botolph Claydon, UK) was added to the cell suspension and cells were incubated in the dark for 10 mins prior to washing. Cells were finally resuspended in 190 μl of calcium-rich buffer together with 10 μl of propidium iodide. Apoptosis was assessed by dual-colour immunofluorescent flow cytometry as described previously.
The data obtained in these experiments were evaluated using one way ANOVA. […] LD50 values were calculated from the non-linear regression and line of best-fit analysis of the sigmoidal dose-response curves. […]

`CCCCCCOC(=O)[C@H](C)NP(=O)(OC[C@@H]1C[C@@H](O)[C@H](n2cnc3c(N)nc(F)nc32)O1)Oc1ccccc1` (stereo partly drawn) [R, (2S)-hexyl 2-(((((2S,4R,5R)-5-(6-amino-2-fluoro-9H-purin-9-yl)-4-hydroxytetrahydrofuran-2-yl)methoxy)(phenoxy)phosphoryl)amino)propanoate]: the IC50 was in the range of 0.1 to 5 µM in the data set with CCRFCEM; 0.1 to 5 µM in the data set with HEL92.1.7; 0.1 to 5 µM in the data set with HL-60; 15 to 100 µM with HT29; 5 to 15 µM in the data set with HepG2; 5 to 15 µM in the data set on K562. Besides, the IC50 fell in the range of 0.1 to 5 µM with KG-1, 0.1 to 5 µM in the data set with MCF7 and 5 to 15 µM with MiaPaCa-2. Also, the Emax was found to be 100% in the data set with CCRFCEM; 99% in the data set with HEL92.1.7; 100% in the data set with HL-60; 92% in the data set with HT29; 82% in the data set on HepG2; 96% with K562. For the same molecule, the figures for the Emax in the data set on KG-1, with MCF7 and with MiaPaCa-2 were 96%, 87% and 98%, respectively. Further, in [1], the “LSC targeting compared with the parent nucleoside” value is given as “significantly improved when compared with the parental nucleoside”.
In the case of `C[C@H](NP(=O)(OC[C@@H]1C[C@H](O)[C@H](n2cnc3c(N)nc(F)nc32)O1)Oc1cccc2ccccc12)C(=O)OCc1ccccc1` (stereo partly drawn) [Compound O, 2-Fluoro-3′-deoxyadenosine-5′-O-[1-naphthyl(benzyloxy-L-alaninyl)] phosphate], the IC50 fell in the range of 0.1 to 5 µM in the data set with CCRFCEM; 0.1 to 5 µM in the data set on HEL92.1.7; 0.1 to 5 µM in the data set with HL-60; 15 to 100 µM with HT29; 5 to 15 µM with HepG2; 0.1 to 5 µM with K562. For the same molecule, the figures for the IC50 in the data set on KG-1, in the data set with MCF7 and in the data set on MiaPaCa-2 were 5 to 15 µM, 0.1 to 5 µM and 0.1 to 5 µM, respectively. The Emax in the data set on CCRFCEM is 99%; in the data set on HEL92.1.7, 100%; with HL-60, 101%; with HT29 it was 84%; in the data set on HepG2 it was 83%; in the data set with K562 it was 99%. The Emax was 99% in the data set on KG-1, 95% with MCF7 and 100% in the data set with MiaPaCa-2. Also, in data set [1] (Lin−/CD34+/CD38−/CD123+), the “reduction of LSCs as a proportion of the cancer cells in culture (ability to target LSCs)” value was “able to bring about a reduction in the proportion of LSCs”. Moreover, the “LSC targeting compared with the parent nucleoside” value in [1] is “not significantly different to 2-F-Cordycepin”.
In the case of `Nc1nc(F)nc2c1ncn2[C@@H]1O[C@H](CO)C[C@H]1O` [2-F-Cordycepin, 3′deoxy-2-fluoroadenosine, reference compound], the IC50 with CCRFCEM is 15 to 100 µM; with HEL92.1.7, 5 to 15 µM; in the data set on HL-60, 5 to 15 µM; with HT29, 15 to 100 µM; with HepG2, 15 to 100 µM; in the data set with K562, 15 to 100 µM. For the same molecule, the half-maximal inhibitory concentration (IC50) fell in the range of 5 to 15 µM in the data set with KG-1, 15 to 100 µM in the data set with MCF7 and 15 to 100 µM in the data set with MiaPaCa-2. The Emax worked out at 101% with CCRFCEM; 99% in the data set on HEL92.1.7; 96% in the data set on HL-60; 73% in the data set with HT29; 82% in the data set on HepG2; 97% in the data set with K562. For the same molecule, the results for the Emax with KG-1, with MCF7 and in the data set on MiaPaCa-2 were 99%, 97% and 100%, respectively. Besides, the “in vitro drug sensitivity / potency (LD50 comparison, FIG. 1)” value in the data set on KG1a cells is “significantly more potent than Cordycepin”.
As to `CCCCCOC(=O)[C@H](CC(C)C)NP(=O)(OC[C@@H]1C[C@H](O)[C@H](n2cnc3c(N)nc(F)nc32)O1)Oc1cccc2ccccc12` (stereo partly drawn) [Compound Q, 2-Fluoro-3′-deoxyadenosine-5′-O-[1-naphthyl(1-pentyloxy-L-leucinyl)] phosphate], the IC50 with CCRFCEM fell in the range of 0.1 to 5 µM; with HEL92.1.7 it was 0.1 to 5 µM; with HL-60, 0.1 to 5 µM; with HT29, 15 to 100 µM; with HepG2 it was 0.1 to 5 µM; in the data set on K562, 0.1 to 5 µM. The results for the IC50 with KG-1, with MCF7 and in the data set with MiaPaCa-2 were 5 to 15 µM, 0.1 to 5 µM and 0.1 to 5 µM, respectively. For the same molecule, the Emax in the data set with CCRFCEM amounted to 101%; with HEL92.1.7, 99%; in the data set on HL-60, 99%; in the data set on HT29 it was 88%; in the data set on HepG2, 94%; in the data set on K562, 100%. Also, the Emax was 103% in the data set with KG-1, 99% in the data set on MCF7 and 100% with MiaPaCa-2. In [1], the “LSC targeting compared with the parent nucleoside” value was “significantly improved when compared with the parental nucleoside”.

Usually IC50 stands for the concentration that gives 50% inhibition.
